{"source": "patent US10329336B2", "about": "“Antimicrobial kinocidin compositions and methods of use” (LA Biomedical Research Institute at Harbor-UCLA Medical …, priority 2006, dated 2019)", "key": {"[1]": {"test_system": "Candida albicans (ATCC 36082)", "assay": "Solid-phase radial diffusion assay (signature model validation), fungus", "type": "cell-based", "conditions": "C. albicans, pH 5.5 or pH 7.5, after 24h", "description": "(§1) Standard radial diffusion assays were conducted using 10 μg of specified peptide: defensin HNP-1 (HNP); brazzein (BRZ); charybdotoxin (CTX); or metallothionein II (MTL). Recombinant brazzein reflecting the published 3-dimensional structure (1BRZ) as determined by nuclear magnetic resonance spectroscopy was kindly provided by Drs. J. L. Markley and F. M. Assadi-Porter, the University of Wisconsin 25. Charybdotoxin, metallothionein II, and defensin HNP-1 were obtained from commercial sources. Antimicrobial activity was assessed using a well-established solid-phase diffusion method as described by Tang et al., Infect. Immun. 70: 6524-6533 (2002). Assays included well characterized organisms: Staphylococcus aureus (ATCC 27217, Gram-positive coccus); Bacillus subtilis (ATCC 6633, Gram-positive bacillus); Escherichia coli (strain ML-35, Gram-negative bacillus); and Candida albicans (ATCC 36082, fungus). In brief, organisms were cultured to logarithmic phase and inoculated (10^6 colony forming units/ml) into buffered molecular-biology grade agarose at the indicated pH. Peptides resuspended in sterile deionized water were introduced into wells formed in the underlay, and incubated for 3h at 37° C. Nutrient-containing overlay medium was then applied, and assays incubated at 37° C. or 30° C. for bacteria or fungi, respectively. After 24h, zones of complete or partial inhibition were measured. All assays were repeated independently a minimum of two times at pH 5.5 (panels A-D) or pH 7.5 (panels E-H) to assess the influences of pH on peptide antimicrobial activities versus microorganisms. Histograms express mean (±standard deviation) zones of complete (blue) or incomplete (yellow) inhibition of growth. […] Note differences in scale.\n(§2) These peptides were tested for antimicrobial activity against a panel of Gram-positive (Staphylococcus aureus. Bacillus subtilis) and Gram-negative (Escherichia coli) bacteria, and the fungus Candida albicans, using a well-established and sensitive in vitro assay [Antimicrobial activity was assessed using a well-established solid-phase diffusion method. Assays included well-characterized organisms: Staphylococcus aureus (ATCC 27217, Gram-positive); Bacillus subtilis (ATCC 6633, Gram-positive); Escherichia coli (strain ML-35, Gram-negative); and Candida albicans (ATCC 36082, fungus). In brief, organisms were cultured to logarithmic phase and inoculated at a density of 10^6 colony forming units/ml in buffered molecular grade agarose at the indicated pH. […] of peptide resuspended in sterile deionized water were introduced into wells formed in the underlay, and incubated for 3h at 37° C. […] After 24h, zones of complete or partial inhibition were measured. […]"}, "[2]": {"test_system": "Staphylococcus aureus (ATCC 27217), Bacillus subtilis (ATCC 6633), Escherichia coli (strain ML-35)", "assay": "Solid-phase radial diffusion assay (signature model validation), bacteria panel", "type": "cell-based", "conditions": "pH 5.5 or pH 7.5, after 24h", "description": "as §1, §2"}, "[3]": {"test_system": "Staphylococcus aureus (ATCC 27217)", "assay": "Solid-phase antimicrobial assay of kinocidins", "type": "cell-based", "conditions": "0.5 nmol/well", "description": "(§3) Peptides (0.5 nmol) were introduced into wells in agarose plates buffered with MES (2.0 mM, pH 5.5) or PIPES (10.0 mM, pH 7.5). Antimicrobial activity was assessed as the zone of complete (blue) or partial (red) inhibition around the well. Abbreviations are: Native IL-8 (IL-8); IL-8α, (α); IL-8γ, (γ); IL-8α+IL-8γ (α+γ); RANTES, (RAN); GRO-α, (GRO); MCP-1, (MCP); lymphotactin, (LYM); platelet factor-4, (PF-4); and HNP-1, (HNP). Histograms are means±SEM (minimum n=2).\n(§4) Briefly, the antimicrobial assays were performed against a panel of prototype human pathogens as previously detailed (Yoshimura, T., Matsushima, K., Tanaka, S., Robinson, E. A., Appella, E., Oppenheim, J. J. & Leonard, E. J. (1987) Proc Natl Acad Sci USA 84, 9233-7): Staphylococcus aureus (ATCC 27217; Gram-positive bacterium); Salmonella typhimurium (5996s; Gram-negative bacterium); and the fungus Candida albicans (ATCC 36082). Defensin HNP-1 was included in each assay as an internal control, and all assays were conducted a minimum of two independent times. Results of independent assays were analyzed using Wilcoxon Rank Sum analysis with Bonferroni correction for multiple comparisons.\n(§5) For the Solid-Phase Assay, mid-logarithmic phase organisms were prepared, introduced into buffered agarose (PIPES [10 mM, pH 7.5] or MES [2.0 mM, pH 5.5]) to achieve final inocula of 10^6 CFU/ml, and poured into plates. Peptides (0.5 nmol/well [50 nmol/ml]) were added to wells in the seeded matrix, and incubated for 3h at 37° C. Nutrient overlay medium was applied, and assays incubated at 37° C. or 30° C. for bacteria or fungi, respectively. After 24h, zones of inhibition were measured, and results recorded as zones of complete or partial inhibition."}, "C. albicans ATCC 36082": {"test_system": "C. albicans ATCC 36082", "assay": "Solution-phase microbicidal assay", "type": "cell-based, Candida albicans", "conditions": "C. albicans; for microbicidal (fungicidal) activity: solution-phase, pH 5.5 and 7.5, 1 hour", "description": "(§6) One million CFU of the indicated microorganism per milliliter were incubated with peptide (0.00125-20.0 nmol/ml) in either MES (2.0 mM, pH 5.5) or PIPES (10.0 mM, pH 7.5) for one hour at 37° C. Surviving CFU were enumerated and are described as change in the initial log 10 CFU. ∘, S. aureus ATCC 27217; ●, S. typhimurium strain 5990s; □, C. albicans ATCC 36082. Data are means±SD (minimum n=2).\nas §4\n(§7) To characterize IL-8's antimicrobial activity in more detail, a quantitative solution-phase assay was carried out at pH 5.5 and 7.5. Organisms were prepared and adjusted to 10^6 CFU/ml in PIPES or MES buffer as above but lacking agarose, and dispensed (5×10^4 CFU per 50 μl aliquot). Peptide (concentration range, 20-0.00125 nmol/ml) was introduced into the assay medium, and incubated for 1 hour at 37° C. After incubation, media were serially diluted and plated in triplicate for enumeration. […] IL-8 was also fungicidal for C. albicans at pH 7.5, with a 2-log reduction in surviving CFU over 1 hour at a concentration of 2.5 nmol/ml."}, "S. aureus ATCC 27217": {"test_system": "S. aureus ATCC 27217", "assay": "Solution-phase microbicidal assay", "type": "cell-based, Staphylococcus aureus", "conditions": "for microbicidal activity: solution-phase, pH 5.5 and 7.5, 1 hour", "description": "as §6, §4, §7"}, "S. typhimurium": {"test_system": "S. typhimurium", "assay": "Solution-phase microbicidal assay", "type": "cell-based, Salmonella typhimurium", "conditions": "for microbicidal activity: solution-phase, pH 5.5 and 7.5, 1 hour", "description": "as §6, §4, §7"}, "[4]": {"test_system": "Salmonella typhimurium (5996s)", "assay": "Solid-phase antimicrobial assay of kinocidins", "type": "cell-based", "conditions": "S. typhimurium (Gram-negative); pH 5.5 or 7.5, not separated; 0.5 nmol/well", "description": "as §3, §4, §5"}, "[5]": {"test_system": "Candida albicans (ATCC 36082)", "assay": "Solid-phase antimicrobial assay of kinocidins", "type": "cell-based", "conditions": "C. albicans, 0.5 nmol/well", "description": "as §3, §4, §5"}, "[6]": {"conditions": "S. aureus (Gram-positive), pH 5.5 or 7.5, not separated"}}, "note": "Entries after “also recorded” stand apart in the source; their conditions may differ."}
{"molecule": "brazzein: recombinant sweetener protein from Pentadiplandra (1BRZ) (QDKCKKVYENYPVSKCQLANQCNYDCKLDKHARSGECFYDEKRNLQCICDYCEY; UniProt P56552 1-54, looked up)", "values": [{"measurement": "antimicrobial activity (zones of complete or partial inhibition)", "setting": "[1]", "value": "exerted direct antimicrobial activity; also recorded: direct antimicrobial activities"}, {"measurement": "antimicrobial activity (zones of complete or partial inhibition)", "setting": "[2]", "value": "exerted direct antimicrobial activity; also recorded: direct antimicrobial activities"}]}
{"molecule": "RANTES: recombinant human chemokine, obtained commercially", "values": [{"measurement": "antimicrobial activity (zone of inhibition)", "setting": "[3]; S. aureus, pH 7.5", "value": "more efficacious"}]}
{"molecule": "metallothionein II: comparator predicted to lack antimicrobial activity, from commercial sources", "values": [{"measurement": "antimicrobial activity (zones of complete or partial inhibition)", "setting": "[1]", "value": "failed to exert antimicrobial activity"}, {"measurement": "antimicrobial activity (zones of complete or partial inhibition)", "setting": "[1]; listed as Metallothionein II", "value": "lacked antimicrobial activity"}, {"measurement": "antimicrobial activity (zones of complete or partial inhibition)", "setting": "[2]", "value": "failed to exert antimicrobial activity"}, {"measurement": "antimicrobial activity (zones of complete or partial inhibition)", "setting": "[2]; listed as Metallothionein II", "value": "lacked antimicrobial activity"}]}
{"molecule": "IL-8: recombinant human chemokine interleukin-8, obtained commercially", "values": [{"measurement": "reduction in surviving CFU", "setting": "C. albicans ATCC 36082; pH 7.5, 2.5 nmol/ml, over 1 hour", "value": 2, "unit": "log"}, {"measurement": "microbicidal (fungicidal) activity", "setting": "C. albicans ATCC 36082", "value": "highly fungicidal"}, {"measurement": "activity in solution phase", "setting": "S. aureus ATCC 27217; pH 7.5", "value": "lacks activity"}, {"measurement": "microbicidal activity", "setting": "S. aureus ATCC 27217", "value": "did not exert microbicidal activity"}, {"measurement": "activity in solution phase", "setting": "S. typhimurium; pH 7.5", "value": "lacks activity"}, {"measurement": "microbicidal activity", "setting": "S. typhimurium", "value": "did not exert microbicidal activity"}, {"measurement": "antimicrobial activity (zone of inhibition)", "setting": "[4]", "value": "equivalent to lymphotactin, but more efficacious than any other test kinocidin"}, {"measurement": "antifungal activity (zone of inhibition)", "setting": "[5]; pH 5.5", "value": "greater than any other kinocidin"}, {"measurement": "antifungal activity (zone of inhibition)", "setting": "[5]; pH 5.5 or 7.5, not separated", "value": "striking antifungal activity"}, {"measurement": "antifungal activity (zone of inhibition)", "setting": "[5]; pH 7.5", "value": "the only kinocidin with anti-candidal activity"}, {"measurement": "antimicrobial activity (zone of inhibition)", "setting": "[3]; S. aureus, pH 5.5", "value": "modest activity"}]}
{"molecule": "MCP-1: recombinant human chemokine, obtained commercially", "values": [{"measurement": "antimicrobial activity (zone of inhibition)", "setting": "[4]", "value": "significant activity"}, {"measurement": "antifungal activity (zone of inhibition)", "setting": "[5]; pH 5.5 or 7.5, not separated", "value": "no measurable antifungal activity"}, {"measurement": "antimicrobial activity (zone of inhibition)", "setting": "[3]; [6]", "value": "significant activity"}]}
{"molecule": "ANTEIIVKLSDGRELCLDP [IL-8γ, synthetic γ-core domain of IL-8]", "values": [{"measurement": "microbicidal (fungicidal) activity", "setting": "C. albicans ATCC 36082", "value": "no measurable activity"}, {"measurement": "microbicidal activity", "setting": "S. aureus ATCC 27217", "value": "no measurable activity"}, {"measurement": "microbicidal activity", "setting": "S. typhimurium", "value": "no measurable activity"}, {"measurement": "antimicrobial activity (zone of inhibition)", "setting": "[4]", "value": "no detectable antimicrobial efficacy"}, {"measurement": "antifungal activity (zone of inhibition)", "setting": "[5]; pH 5.5 or 7.5, not separated", "value": "no detectable antimicrobial efficacy"}, {"measurement": "antimicrobial activity (zone of inhibition)", "setting": "[3]; [6]", "value": "no detectable antimicrobial efficacy"}]}
{"molecule": "charybdotoxin", "values": [{"measurement": "antimicrobial activity (zones of complete or partial inhibition)", "setting": "[1]", "value": "exerted direct antimicrobial activity; also recorded: direct antimicrobial activities"}, {"measurement": "antimicrobial activity (zones of complete or partial inhibition)", "setting": "[2]", "value": "exerted direct antimicrobial activity; also recorded: direct antimicrobial activities"}]}
{"molecule": "Lymphotactin: recombinant human chemokine, obtained commercially (protein, UniProt P47992 22-114, looked up) Lymphotactin: VGSEVSDKRTCVSLTTQRLPVSRIKTYTITEGSLRAVIFITKRGLKVCADPQATWVRDVVRSMDRKSNTRNNMIQTKPTGTQQSTNTAVTLTG", "values": [{"measurement": "antimicrobial activity (zone of inhibition)", "setting": "[3]; S. aureus, pH 7.5", "value": "more efficacious"}]}
